Experimental data taken from publication PMC8036603, “Small Molecule Inhibitors of White Spot Syndrome Virus: Promise in Shrimp Seedling Culture” (International Journal of Molecular Sciences, 2021).
Where “and” joins values, the source holds several entries; their conditions need not be identical. Equal entries are not always repeated.

Experiments:
Assay type in all cases: in vivo, Litopenaeus vannamei
[1] = system: Shrimp (L. vannamei) larvae; experiment: Acute toxicity assay in shrimp larvae; settings: after 72 h of exposure
Experimental: Shrimp (L. vannamei) larvae (total length: 0.5 ± 0.04 cm, body weight: 4.2 ± 0.4 mg, mean ± SD) were provided by Zhejiang Mariculture Research Institute Qingjiang Station (Wenzhou, China). The larvae were maintained in a culture pond at 28 °C, fed four times a day with commercial feed pellets, and collected randomly for PCR testing to verify the WSSV-free status prior to the trial.
Acute toxicity of the coumarin derivatives was investigated by exposing larvae to a range of compound concentrations, from 0.1 mg/L to 100 mg/L of coumarin derivatives, where the dose setting was based on the data from preliminary tests in our laboratory. A DMSO-control (2%, v/v, the highest percentage of DMSO in treatments) served as the control. During the experiment, every 20 larvae were moved into six-well plates filled with 6 mL/per well freshly prepared test solutions for a 72-h incubation at 28 °C with a natural photoperiod. […] To avoid deterioration of water quality, dead shrimps were immediately removed at the point of observation. Three replicate experiments were performed.
Compound response curves were represented by a logistic sigmoidal function with a maximal effect level (Amax) and Hill coefficient representing the sigmoidal transition (Origin 8.1; http://www.originlab.com, accessed on 25 March 2021). Statistical analyses were performed using SPSS (version 18.0) statistical software (SPSS Inc., Chicago, IL, USA). The LC50 and EC50 values with 95% CIs were calculated using probit analysis. Virus titers were log10-transformed prior to statistical analyses. Unpaired Student’s t-tests were used to compare coumarin-treated samples and negative-control DMSO samples for determining significance and data are presented as mean values ± SD.

[2] = system: white spot syndrome virus (WSSV); experiment: Anti-WSSV activity in shrimp larvae, co-incubation, copy number of viral genome by RT-qPCR; settings: for copy number of the viral genome in sick or dead shrimp homogenates: 24, 48 and 72 hpi, up to 10 mg/L; for inhibitory efficiency on WSSV replication: six-point dose-response, viral genome copy number in larvae
[3] = system: white spot syndrome virus (WSSV); experiment: Survival of WSSV-infected shrimp larvae on co-incubation with compound; settings: for enhancement of survival rate in WSSV-infected larvae: 72 hpi, 10 mg/L, co-incubation; for decrease of mortality of WSSV-infected larvae after exposure: abstract statement
Experimental: For in vivo study of co-incubation, C2 and C7 was separately incubated with WSSV and shrimp larvae.
Figure 2 C2 and C7 inhibited WSSV infection in shrimp larvae. (A) Schematic diagram describing the workflow. (B) The survival rate of WSSV-infected shrimp was analyzed in 0.31 to 10 mg/L treatments at 72 hpi. (C) Survivorship curve of WSSV-infected shrimp was analyzed in C2 and C7 up to 10 mg/L treatment. (D) Quantification on copy number of viral genome was tested by exposure to C2 and C7 up to 10 mg/L treatment at 24, 48, and 72 hpi, respectively. The virus-infected shrimps were immersed with the compounds and DMSO at the dose 0.2‰ (v/v). Each value is represented as the mean ± SD normalized to values for no treatment. The p value for each study was determined by Student’s t tests. ** p < 0.01.
[…], shrimp larvae were randomly selected, separated into six-well plates containing ultraviolet light-sterilized aquacultural water, and infected with WSSV (final viral titer of 1.6 × 10^5 copies/µL) in the presence of coumarins for 72 h. Mock negative controls (1% DMSO) were also used. The homogenate of each well containing sick or dead shrimp was subjected to low-speed centrifugation (2000× g). The viral load was quantified by determining the copy number of the viral genome in samples by quantitative reverse transcription polymerase chain reaction (RT-qPCR) assay, as previously described.

[4] = system: white spot syndrome virus (WSSV); experiment: Preincubation of WSSV with compound before infection of larvae; settings: virus pre-incubated with compound 1–4 h; for increase of survival rate: 10 mg/L
Experimental: For preincubation with immersion, WSSV was preincubated with C2/C7 to a final viral titer of 1.6 × 10^5 copies/µL and up to 10 mg/L coumarin compound or vehicle control in the challenge wells. After 1, 2, and 4 h of incubation, shrimp larvae were added to the challenge well until 72-h post-infection. The surviving shrimp were humanely euthanized with tricaine methane sulfonate (MS-222) at a final concentration of 150 mg/L, followed by quantification of the copy number of the viral genome.

[5] = system: white spot syndrome virus (WSSV); experiment: Continuous immersion with compound exchange after WSSV infection; settings: for survival rate: 10 mg/L
Experimental: For continuous immersion with cultural medium exchange, the culture water in each well was replaced by C2/C7 or DMSO solution after WSSV infection (final viral titer of 1.6 × 10^5 copies/µL) for 24 h. Every 24 h, the shrimp were transformed into a new challenge well with fresh water and a fresh dose of C2/C7 or DMSO (0.2‰) for an additional 5 days. The survival shrimps were euthanized with MS-222 and frozen at −80 °C until processing. The survival of shrimp larvae and the copy number of viral genome in samples were described as above.

[6] = system: white spot syndrome virus (WSSV); experiment: Horizontal transmission of WSSV to naive recipient larvae; settings: 10 mg/L, each time point
Experimental: Shrimp larvae were infected with 1.6 × 10^5 copies/µL WSSV or aquacultural water only. At 24 hpi, a total of the 12 donor shrimps were placed into each challenge beaker (100 mL of water and a continuous air supply), and C2 (10 mg/L final concentration) or DMSO (0.2‰ final concentration) was added to each challenge beaker. Every 24 h, five donor and fifteen recipient shrimp were netted into a new challenge beaker with fresh water and a fresh dose of C2/C7 (10 mg/L) or DMSO (0.2‰). After 72 h of cohabitation, the surviving recipient shrimps were euthanized with MS-222 and frozen at −80 °C. In order to distinguish the donor and recipient samples in this test, we chose the larger shrimp as the recipients (total length of 1.1 ± 0.2 cm, body weight of 6.9 ± 0.5 mg, mean values ± SD) and placed a sieve in the challenge beaker to separate the donor and recipient shrimps.

[7] = WSSV-infected larvae, copy number of viral genome, 72 h, 95% CI in brackets
[8] = 60 h after exposure, larvae pre-infected 24 h, no exchange, untreated 0%
[9] = at 120 h, compound exchanged one to four times

“2-amino-4-(4-chlorophenyl)-5-oxo-4H,5H-pyrano[3,2-c]chromene-3-carbonitrile [C7]” was tested, and the “signs of toxicity at the saturation concentration” value [1] was “No signs of toxicity were observed”, the “copy number of the viral genome in sick or dead shrimp homogenates” value [2] was “down-regulated” and the “EC50 (mg/L; 95% CI), median effective concentration” value [2, 7] was < 10 mg/L and 05.727 (5.069~6.577) mg/L. The “MAR (%), maximum antiviral response” value ([2]; WSSV-infected larvae, viral genome copy number normalized to no treatment, low value = strong inhibition, mean ± SD) was 03.154 ± 1.157%, the “inhibitory efficiency on WSSV replication” value [2] was “exceeded 90%” and the “enhancement of survival rate in WSSV-infected larvae” value [3] was “more than 65%”. The “decrease of mortality of WSSV-infected larvae after exposure” value [3] was “more than 60%”, the “effect on WSSV infection (viral genome copy number)” value [4] was “suppressed WSSV infection” and the “increase of survival rate” value [4] was “up to 40%”. The survival rate [5, 8] was 50%, the “mortality with continuous immersion of compound exchange” value ([5]; at 120 h) was 40% and the survival rate [5, 9] was “more than 60%”. The “WSSV replication in naïve recipient larvae” value [6] was “significantly downregulated”.
In the case of `Cc1ccc(C2C(C#N)=C(N)Oc3c2c(=O)oc2ccccc32)cc1` (centres unmarked) [C2, 2-amino-5-oxo-4-(p-tolyl)-4H,5H-pyrano[3,2-c]chromene-3-carbonitrile], the “signs of toxicity at the saturation concentration” value [1] is reported as “No signs of toxicity were observed”, the “copy number of the viral genome in sick or dead shrimp homogenates” value [2] is reported as “down-regulated” and the “EC50 (mg/L; 95% CI), median effective concentration” value [2, 7] is reported as 05.993 (5.327~6.851) mg/L. For the same molecule, the EC50 ([2]; Whispovirus xiabaidian, 72 h, read-out: EC50 (mg/L; 95% CI), median effective concentration, WSSV-infected larvae, copy number of viral genome, 72 h, 95% CI in brackets) was less than 10 mg/L, the “inhibitory efficiency on WSSV replication” value [2] was “exceeded 90%” and the “enhancement of survival rate in WSSV-infected larvae” value [3] was “more than 65%”. For the same molecule, the “decrease of mortality of WSSV-infected larvae after exposure” value [3] was “more than 60%”, the “effect on WSSV infection (viral genome copy number)” value [4] was “suppressed WSSV infection” and the “increase of survival rate” value [4] was “up to 40%”. For the same molecule, the survival rate [5, 8] was 50%, the “mortality with continuous immersion of compound exchange” value ([5]; at 120 h) was 40% and the survival rate [5, 9] was “more than 60%”. The “WSSV replication in naïve recipient larvae” value [6] was “significantly downregulated”.
